Values of other authors in patent US20220162327A1, “ANTI-CCR5 AGENTS AND METHODS OF TREATMENT THAT BLOCK CANCER METASTASIS OR ENHANCE CELL DEATH INDUCED BY DNA DAMAGING CHEMOTHERAPY” (CytoDyn Inc., priority 2019, published 2022).

Tests used:
CCR5 [1] = biological target: T1, CCR5 (Homo sapiens, UniProt P51681); parameters: endogenous in cells; host or cells: CD4+ T cells; conditions: cited from earlier work
[2] = system: breast cancer tumor model; conditions: cited from earlier work
CCL5 = conditions: human colorectal cancer liver metastasis; cited from earlier work
CCR5 [3] = biological target: T1, CCR5; conditions: activated human T cells, cited from earlier work

T1 sequence (P51681 whole entry): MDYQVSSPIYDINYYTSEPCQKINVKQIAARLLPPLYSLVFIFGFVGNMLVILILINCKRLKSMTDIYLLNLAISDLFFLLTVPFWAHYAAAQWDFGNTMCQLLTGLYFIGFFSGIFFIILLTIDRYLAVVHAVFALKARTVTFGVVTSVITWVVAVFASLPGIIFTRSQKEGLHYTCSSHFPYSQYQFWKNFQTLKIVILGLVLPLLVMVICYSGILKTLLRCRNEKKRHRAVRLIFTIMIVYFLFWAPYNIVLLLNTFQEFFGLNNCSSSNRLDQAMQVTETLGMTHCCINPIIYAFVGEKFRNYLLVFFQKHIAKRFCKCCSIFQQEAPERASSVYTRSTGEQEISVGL

Row | Compound | cell killing mediated by DNA-damaging chemotherapeutic agents (CCR5 [1]) | lung metastases [2] | effect on tumor-associated macrophages and tumor cells (CCL5) | production of TNF-α and IFN-γ (CCR5 [3]; high doses) | CCR5 and CCR2 internalization induced by CCL5 and CCL2 (CCR5 [3]) | T cell chemotactic activities toward cognate ligands (CCR5 [3])
1 | COC[C@@H](c1ccc(C(F)(F)F)cc1)N1CCN(C2(C)CCN(C(=O)c3c(C)ncnc3C)CC2)C[C@@H]1C [vicriviroc] | dramatically enhanced cell killing |  |  |  |  | 
2 | maraviroc | dramatically enhanced cell killing | effectively blocked lung metastases | led to repolarization of tumor-associated macrophages and tumor cell death | tends to decrease production of TNF-α and IFN-γ | can block CCR5 and CCR2 internalization processes induced by CCL5 and CCL2 | inhibit T cell chemotactic activities
